From US6977262B2, “Dihydropyrazolopyridine compounds and pharmaceutical use thereof” (Mitsubishi Pharma Corporation, priority 2001, dated 2005)

melting point [°C]	SMILES
182	CCCC1=C(C(=O)OCC)C(c2cccc3ccccc23)c2c[nH]nc2N1 (stereo not drawn) [Example 66, Ethyl 4,7-dihydro-4-(naphthalen-1-yl)-6-propyl-2H-pyrazolo[3,4-b]pyridine-5-carboxylate]
222	CCCC1=C(C(=O)OCC)C(c2csc3ccccc23)c2c[nH]nc2N1 (stereo not drawn) [Example 75, Ethyl 4-(benzo[b]thiophen-3-yl)-4,7-dihydro-6-propyl-2H-pyrazolo[3,4-b]pyridine-5-carboxylate]
213	CCOC(=O)C1=C(CC)Nc2n[nH]cc2C1c1ccccc1Cl (stereo not drawn) [Example 82, Ethyl 4-(2-chlorophenyl)-6-ethyl-4,7-dihydro-2H-pyrazolo[3,4-b]pyridine-5-carboxylate]
209	CCCCC1=C(C(=O)OCC)C(c2ccccc2Cl)c2c[nH]nc2N1 (stereo not drawn) [Example 83, Ethyl 6-butyl-4-(2-chlorophenyl)-4,7-dihydro-2H-pyrazolo[3,4-b]pyridine-5-carboxylate]
160	COCC1=C(C(=O)OC)C(c2ccccc2Cl)c2c[nH]nc2N1 (stereo not drawn) [Example 84, Methyl 4-(2-chlorophenyl)-4,7-dihydro-6-methoxymethyl-2H-pyrazolo[3,4-b]pyridine-5-carboxylate]
214	CCOC(=O)C1=C(c2ccccc2)Nc2n[nH]cc2C1c1ccccc1Cl (stereo not drawn) [Example 85, Ethyl 4-(2-chlorophenyl)-4,7-dihydro-6-phenyl-2H-pyrazolo[3,4-b]pyridine-5-carboxylate]
200	CCOC(=O)C1=C(c2cccs2)Nc2n[nH]cc2C1c1ccccc1Cl (stereo not drawn) [Example 87, Ethyl 4-(2-chlorophenyl)-4,7-dihydro-6-(thiophen-2-yl)-2H-pyrazolo[3,4-b]pyridine-5-carboxylate]
247	CCOC(=O)C1=C(Cc2ccccc2)Nc2n[nH]cc2C1c1ccccc1Cl (stereo not drawn) [Example 88, Ethyl 6-benzyl-4-(2-chlorophenyl)-4,7-dihydro-2H-pyrazolo[3,4-b]pyridine-5-carboxylate]
169	CCOC(=O)C1=C(CC)Nc2n[nH]cc2C1c1ccccc1OC (stereo not drawn) [Example 89, Ethyl 6-ethyl-4,7-dihydro-4-(2-methoxyphenyl)-2H-pyrazolo[3,4-b]pyridine-5-carboxylate]
190	CCCCC1=C(C(=O)OCC)C(c2ccccc2OC)c2c[nH]nc2N1 (stereo not drawn) [Example 90, Ethyl 6-butyl-4,7-dihydro-4-(2-methoxyphenyl)-2H-pyrazolo[3,4-b]pyridine-5-carboxylate]
228	CCCC1=C([N+](=O)[O-])C(c2ccccc2Cl)c2c[nH]nc2N1 (stereo not drawn) [Example 93, 4-(2-Chlorophenyl)-4,7-dihydro-5-nitro-6-propyl-2H-pyrazolo[3,4-b]pyridine]

Continued, molecule first:

SMILES	melting point [°C]
CCCC1=C(C(=O)OCC)C(c2ccoc2C)c2c[nH]nc2N1 (stereo not drawn) [Example 61, Ethyl 4,7-dihydro-4-(2-methylfuran-3-yl)-6-propyl-2H-pyrazolo[3,4-b]pyridine-5-carboxylate]	123 to 125
CCCC1=C(C(=O)OCC)C(c2cccs2)c2c[nH]nc2N1.O=C(O)/C=C\C(=O)O (stereo not drawn) [Example 62, Ethyl 4,7-dihydro-6-propyl-4-(thiophen-2-yl)-2H-pyrazolo[3,4-b]pyridine-5-carboxylate maleate]	129 to 131
CCCC1=C(C(=O)OCC)C(c2sccc2C)c2c[nH]nc2N1 (stereo not drawn) [Example 63, Ethyl 4,7-dihydro-4-(3-methylthiophen-2-yl)-6-propyl-2H-pyrazolo[3,4-b]pyridine-5-carboxylate]	125
CCCC1=C(C(=O)OCC)C(c2ccc(Cl)s2)c2c[nH]nc2N1.O=C(O)/C=C\C(=O)O (stereo not drawn) [Example 64, Ethyl 4-(5-chlorothiophen-2-yl)-4,7-dihydro-6-propyl-2H-pyrazolo[3,4-b]pyridine-5-carboxylate maleate]	129 to 131
CCCC1=C(C(=O)OCC)C(c2ccsc2)c2c[nH]nc2N1.O=C(O)/C=C\C(=O)O (stereo not drawn) [Example 65, Ethyl 4,7-dihydro-6-propyl-4-(thiophen-3-yl)-2H-pyrazolo[3,4-b]pyridine-5-carboxylate maleate]	141 to 143
CCCC1=C(C(=O)OCC)C(c2ccc3ccccc3c2)c2c[nH]nc2N1.O=C(O)/C=C\C(=O)O (stereo not drawn) [Example 67, Ethyl 4,7-dihydro-4-(naphthalen-2-yl)-6-propyl-2H-pyrazolo[3,4-b]pyridine-5-carboxylate maleate]	136 to 138
CCCC1=C(C(=O)OCC)C(c2c(OC)ccc3ccccc23)c2c[nH]nc2N1 (stereo not drawn) [Example 68, Ethyl 4,7-dihydro-4-(2-methoxynaphthalen-1-yl)-6-propyl-2H-pyrazolo[3,4-b]pyridine-5-carboxylate]	188 to 191
CCCC1=C(C(=O)OCC)C(c2cccc3c2OCC=C3)c2c[nH]nc2N1 (stereo not drawn) [Example 72, Ethyl 4-(2H-1-benzopyran-8-yl)-4,7-dihydro-6-propyl-2H-pyrazolo[3,4-b]pyridine-5-carboxylate]	194
CCCC1=C(C(=O)OCC)C(c2cccc3c2OCCC3)c2c[nH]nc2N1 (stereo not drawn) [Example 73, Ethyl 4-(3,4-dihydro-2H-benzopyran-8-yl)-4,7-dihydro-6-propyl-2H-pyrazolo[3,4-b]pyridine-5-carboxylate]	208
CCCC1=C(C(=O)OCC)C(c2ccnc3ccccc23)c2c[nH]nc2N1 (stereo not drawn) [Example 74, Ethyl 4,7-dihydro-6-propyl-4-(quinolin-4-yl)-2H-pyrazolo[3,4-b]pyridine-5-carboxylate]	198
CCCC1=C(C(=O)OCC)C(c2cccc3nonc23)c2c[nH]nc2N1 (stereo not drawn) [Example 76, Ethyl 4-(2,1,3-benzoxadiazol-4-yl)-4,7-dihydro-6-propyl-2H-pyrazolo[3,4-b]pyridine-5-carboxylate]	207
CCCC1=C(C(=O)OCC)C(c2ccc3c(c2)OCCO3)c2c[nH]nc2N1.O=C(O)/C=C\C(=O)O (stereo not drawn) [Example 80, Ethyl 4-(2,3-dihydro-1,4-benzodioxin-6-yl)-4,7-dihydro-6-propyl-2H-pyrazolo[3,4-b]pyridine-5-carboxylate maleate]	147 to 149
CCCC1=C(C(=O)OCC)C(c2cc3ccccc3o2)c2c[nH]nc2N1.O=C(O)/C=C\C(=O)O (stereo not drawn) [Example 81, Ethyl 4-(benzo[b]furan-2-yl)-4,7-dihydro-6-propyl-2H-pyrazolo[3,4-b]pyridine-5-carboxylate maleate]	123 to 125
CCOC(=O)C1=C(c2ccc(OC)cc2)Nc2n[nH]cc2C1c1ccccc1Cl (stereo not drawn) [Example 86, Ethyl 4-(2-chlorophenyl)-4,7-dihydro-6-(4-methoxyphenyl)-2H-pyrazolo[3,4-b]pyridine-5-carboxylate]	211
COCC1=C(C(=O)OC)C(c2ccccc2OC)c2c[nH]nc2N1 (stereo not drawn) [Example 91, Methyl 4,7-dihydro-6-methoxymethyl-4-(2-methoxyphenyl)-2H-pyrazolo[3,4-b]pyridine-5-carboxylate]	186
CCOC(=O)C1=C(c2ccccc2)Nc2n[nH]cc2C1c1ccccc1OC (stereo not drawn) [Example 92, Ethyl 4,7-dihydro-4-(2-methoxyphenyl)-6-phenyl-2H-pyrazolo[3,4-b]pyridine-5-carboxylate]	195
